# Test: Repeat-dose primate toxicology studies
# Assay type: in vivo
structure (smiles),measurement,setting,value
CN(C)c1ccc(O)c2c1C[C@H]1C[C@H]3[C@H](N(C)C)C(O)=C(C(N)=O)C(=O)[C@@]3(O)C(O)=C1C2=O [minocycline],lowest exposure which yields adverse effects,4 weeks,~15 µg/mL
same,lowest exposure which yields adverse effects,13 weeks,~7 µg/mL

# — US7544373B2, “Minocycline oral dosage forms for the treatment of acne” (Medicis Pharmaceutical Corporation, priority 2007, dated 2009)
